Laboratory results published in patent US20070167408A1, “NOVEL ALKYL PHOSPHOLIPID DERIVATIVES WITH REDUCED CYTOTOXICITY AND USES THEREOF” (ZENTARIS GmbH, priority 2005, published 2007).
Converted amounts (≈) assume the structure as drawn. Like-named read-outs stand apart in the source and are kept apart here.

What was measured:
[1] = system: Cryptococcus neoformans H99; assay: Anti-fungal broth microdilution (MIC), fungus I; format: cell-based; settings: yeast protocol, more than 80% inhibition, 48 h
Description: (§1) Anti-fungal activity of selected compounds of the invention was assessed by means of anti-fungal susceptibility tests as follows.
(§2) The antifungal activities of the compounds of the invention against different fungi were measured according to standard broth microdilution methods of the US National Committee for Clinical Laboratory standards (NCCLS) for yeasts (NCCLS document M27-A, 1997) and filamentous fungi (NCCLS document M38-A, 2002).
(§3) Stock solutions of compounds of the invention were freshly prepared on the days of experiments equal to 1.28 mg/10 ml media. Serial dilutions were performed to achieve the following testing concentrations: 64 μg/ml, 32 μg/ml, 16 μg/ml, 8 μg/ml, 4 μg/ml, 2 μg/ml, 1 μg/ml, 0.5 μg/ml, 0.25 μg/ml and 0.125 μg/ml.
(§4) An inoculum of 10^6 CFU/ml of the fungi strain was prepared in the appropriate medium and transferred to test tubes for incubation.
(§5) The method is used to determine the minimum inhibitory concentrations (MIC) of drugs on fungi strains. […] For the filamentous fungi protocol, MIC determination took place after 48 to 72 h of culture at 35° C. and was defined at that concentration which produced more than 50% visible growth inhibition.

Candida albicans TS3 = assay: Anti-fungal broth microdilution (MIC), fungus F; format: cell-based; settings: yeast protocol, more than 80% inhibition, 48 h
Description: as §1, §2, §3, §4, §5

[2] = system: Aspergillus fumigatus 040-200167; assay: Anti-fungal broth microdilution (MIC), fungus C; format: cell-based; settings: Aspergillus fumigatus, 040200167; filamentous protocol, more than 50% growth inhibition, 48 to 72 h
Description: as §1, §2, §3, §4, §5

[3] = system: Candida albicans ATCC 90028; assay: Anti-fungal broth microdilution (MIC), fungus E; format: cell-based; settings: yeast protocol, more than 80% inhibition, 48 h
Description: as §1, §2, §3, §4, §5

[4] = system: Candida albicans ATCC 10231; assay: Anti-fungal broth microdilution (MIC), fungus D; format: cell-based; settings: yeast protocol, more than 80% inhibition, 48 h
Description: as §1, §2, §3, §4, §5

[5] = system: Cryptococcus neoformans ATCC 90112; assay: Anti-fungal broth microdilution (MIC), fungus H; format: cell-based; settings: yeast protocol, more than 80% inhibition, 48 h
Description: as §1, §2, §3, §4, §5

[6] = system: Candida parapsilosis ATCC 22019; assay: Anti-fungal broth microdilution (MIC), fungus G; format: cell-based; settings: yeast protocol, more than 80% inhibition, 48 h
Description: as §1, §2, §3, §4, §5

[7] = system: Cryptococcus gattii ATCC 32608; assay: Anti-fungal broth microdilution (MIC), fungus J; format: cell-based; settings: yeast protocol, more than 80% inhibition, 48 h
Description: as §1, §2, §3, §4, §5

[8] = system: Aspergillus fumigatus ATCC 204305; assay: Anti-fungal broth microdilution (MIC), fungus A; format: cell-based; settings: Aspergillus fumigatus, ATCC204305; filamentous protocol, more than 50% growth inhibition, 48 to 72 h
Description: as §1, §2, §3, §4, §5

[9] = system: Aspergillus fumigatus 322-384; assay: Anti-fungal broth microdilution (MIC), fungus B; format: cell-based; settings: Aspergillus fumigatus, 322384; filamentous protocol, more than 50% growth inhibition, 48 to 72 h
Description: as §1, §2, §3, §4, §5

[10] = system: SKOV-3 (human ovary adenocarcinoma) cells; assay: XTT cytotoxicity assay, SKOV-3 cells; format: cell-based; settings: second set of experiments
Description: On the first day of the experiment cells were harvested from exponential phase cultures by trypsination, counted and plated into 96 well flat-bottom micro titer plates depending on the cell line as listed below: [table] After a 24 h recovery to allow the cells to resume exponential growth, the test compounds were diluted immediately prior to use and transferred in 25 μl volume to the wells. Following 2 days of continuous drug exposure 50 μl of freshly prepared XTT-PMS solution {2% 0.386 mg/ml PMS (N-Methyl Dibenzopyrazine Methylsulphate; Sigma, Cat. No. […] Serva, Cat. No. 38450) in RPMI 1640 medium without phenol red} was added to the wells. To measure the proportion of living cells, the cells were incubated for 3 h with XTT-PMS reagent at 37° C., 5% CO2, humidified atmosphere allowing to form the formazan salt. […] Inhibition curves were generated and IC50 values calculated by using GraphPad Prism.

[11] = system: PC3, RKOp21 and SKOV-3 cell lines; assay: XTT cytotoxicity assay, mean over all three cell lines; format: cell-based, human; settings: mean value over all three cell lines
Description: Following 2 days of continuous drug exposure 50 μl of freshly prepared XTT-PMS solution {2% 0.386 mg/ml PMS (N-Methyl Dibenzopyrazine Methylsulphate; Sigma, Cat. No. […] Serva, Cat. No. 38450) in RPMI 1640 medium without phenol red} was added to the wells. To measure the proportion of living cells, the cells were incubated for 3 h with XTT-PMS reagent at 37° C., 5% CO2, humidified atmosphere allowing to form the formazan salt. […] Inhibition curves were generated and IC50 values calculated by using GraphPad Prism. In the following table 7 cytotoxicity results (% inhibition of cell growth) obtained in the second set of experiments for selected compounds of the invention are presented in comparison to examples of the prior art (perifosine, miltefosine). The results presented are individual values for the respective cell line as well as the mean value over all three cell lines tested.

[12] = system: RKOp21 (human colon adenocarcinoma) cells; assay: XTT cytotoxicity assay, RKOp21 cells; format: cell-based; settings: for RKOp21 % INH [31.6 μM]: second set of experiments; for IC50: XTT, 48 h exposure, read-out: RKOp21 [IC50 (μM)]
Description: (§6) Cytotoxicity of selected compounds of the invention against different mammalian cell lines was assessed as follows.
(§7) Human tumor cell lines KB/HeLa (ATCC CCL17, human cervix carcinoma), PC3 (ATCC CRL1435, human prostate carcinoma) and RKOp21 (human colon adenocarcinoma; Schmidt et al., Oncogene 2000, 19: 2423-2429) cells were used in an automated XTT screening assay for the assessment of cytotoxicity.
(§8) The XTT assay quantifies cellular metabolic activity which correlates with cell viability and cell number. Test compounds (selected compounds of the invention and known substances as controls) are dissolved in culture medium at 600 μM and added to the tumor cells in 10 different concentrations in a semi-logarithmic fashion starting from 100 μM as highest concentration.
(§9) In a second set of experiments employing PC3, RKOp21 and SKOV-3 (ATCC HTB-77, human ovary adenocarcinoma) cells, test and reference compounds were dissolved in 70% Ethanol/30% H2O in a stock concentration of 10 mM and diluted in cell culture medium to yield either 31.6 μM (PC3 and RKOp21) or 100 μM (SKOV-3) final concentration.
(§10) 48 h later cellular metabolic activity of cells treated with test compounds is quantified by measurement of the absorbance at 490 nm (conversion of XTT dye) in comparison to untreated control cells (100% viability).
(§11) KB/HeLa and PC3 cells were cultivated in RPMI 1640 medium (Gibco, Cat. No. 42401-018) supplemented with 10% heat inactivated fetal calf serum (FCS, Biochrom AG, Cat. No. S0115), 2 mM L-glutamine (Gibco, Cat. No. 25030-24) and 2% Penicillin-Streptomycin (PenStrep, Gibco, Cat. No. 15140-122). RKOp21 cells were grown in DMEM+GlutaMAXTM-I medium (Gibco, Cat. No. 61965-026) supplemented with 10% heat inactivated fetal calf serum (FCS, Biochrom AG, Cat. No. S0115), 2 mM L-glutamine (Gibco, Cat. No. 25030-24), 2% Penicillin-Streptomycin (PenStrep, Gibco, Cat. No. 15140-122) and 1% 1M HEPES (Gibco, Cat. No. 15630-056). All cells were cultured at 37° C. in 5% CO2 humidified air.
(§12) On the first day of the experiment cells were harvested from exponential phase cultures by trypsination, counted and plated into 96 well flat-bottom micro titer plates depending on the cell line as listed below:
(§13) After a 24 h recovery to allow the cells to resume exponential growth, the test compounds were diluted immediately prior to use and transferred in 25 μl volume to the wells.
(§14) Following 2 days of continuous drug exposure 50 μl of freshly prepared XTT-PMS solution {2% 0.386 mg/ml PMS (N-Methyl Dibenzopyrazine Methylsulphate; Sigma, Cat. No. P9625) in PBS+98% 1 mg/ml XTT (Sodium 2,3-bis(2-methoxy-4-nitro-5-sulfophenyl)-5-[(phenylamino)carbonyl]-2H-Tetrazolium; Serva, Cat. No. 38450) in RPMI 1640 medium without phenol red} was added to the wells. To measure the proportion of living cells, the cells were incubated for 3 h with XTT-PMS reagent at 37° C., 5% CO2, humidified atmosphere allowing to form the formazan salt. The amount of soluble formazan salt produced by cellular reduction of XTT is quantified by measuring the absorbance at 490 nm using the Biomek® 2000 ELISA plate reader. %-inhibition (cytotoxicity) of each test compound was calculated in relation to untreated control cells. Inhibition curves were generated and IC50 values calculated by using GraphPad Prism.

[13] = system: PC3 (human prostate carcinoma) cells; assay: XTT cytotoxicity assay, PC3 cells; format: cell-based; settings: for PC3 % INH [31.6 μM]: second set of experiments; for IC50: XTT, 48 h exposure, read-out: PC3 [IC50 (μM)]
Description: as §6, §7, §8, §9, §10, §11, §12, §13, §14

[14] = system: KB/HeLa (human cervix carcinoma) cells; assay: XTT cytotoxicity assay, KB/HeLa cells; format: cell-based; settings: XTT, 48 h exposure, read-out: KB/HELA [IC50 (μM)]
Description: as §6, §7, §8, §10, §11, §12, §13, §14

[15] = system: Moraxella catarrhalis DMS 11994 (ATCC 43617); assay: Anti-bacterial bouillon microdilution assay (MIC), bacterium D; format: cell-based; settings: ATCC43617, 24 h
Description: Selected compounds of the invention were tested in a bouillon microdilution assay method according to the DIN 58940 (www.din.de) guidelines for determination of susceptibility of bacterial strains with regard to cell growth inhibition. The assay method quantifies bacterial cell growth which corresponds to the turbidity of the liquid culture medium by photometric measurement carried out at 595 nm.
The method of MIC determination was performed according to DIN 58940-5. The volumina were adapted according to the microdilution method as described in DIN 58940-7 guideline.
Dependent on water solubility, compounds of the invention were dissolved either in water or ethanol in a concentration of 10 mg/ml. Subsequently, the stock was further diluted in water to a concentration of 512 μg/ml. The following serial dilutions (factor 2) were performed in water resulting in the following […] testing concentrations: 256 μg/ml, 128 μg/ml, 64 μg/ml, 32 μg/ml, 16 μg/ml, 8 μg/ml, 4 μg/ml, 2 μg/ml, 1 μg/ml, 0.5 μg/ml, 0.25 μg/ml and 0.125 μg/ml. Diluted compounds of the invention were transferred in 100 μl volume to the microtiter plate wells.
Pre-cultures of bacteria were grown in appropriate liquid media (refer to ATCC webpage, www.atcc.org) and afterwards were inoculated in corresponding liquid medium. 100 μl of the inoculums [adjusted to an amount of app. 1×10^6 microorganisms per ml (range of 10^5-10^8 microorganisms per ml)] were added to each of the testing compound concentrations and cultivated under the appropriate conditions.
Before and after incubation, bacterial growth was determined by photometric analysis against a positive control containing growing bacteria without compound and a sterile/negative control containing only the medium.

With `CCCCCCCCCCCCCCCCOCCCOP(=O)([O-])OCC[N+](C)(C)C` [Compound 8, Phosphoric acid 3-hexadecyloxy-propyl ester 2-trimethyl-ammonium-ethyl ester] the MIC [1] was 1.5 µg/mL, the MIC (Candida albicans TS3) was 1 µg/mL and the MIC [2] was 2 µg/mL. For the same compound, the MIC [3] was 0.75 µg/mL, the MIC [4] was 0.75 µg/mL and the MIC [5] was 2 µg/mL. It also gave an MIC [6] of 0.75 µg/mL, an MIC [7] of 0.75 µg/mL and an MIC [8] of 2 µg/mL. It also gave an MIC [9] of 2 µg/mL.

With `CCCCCCCCC=CCCCCCCCCOP(=O)(O)OCCN1CCCCC1` [Compound 19] the “SKOV-3 % INH [100 μM]” value [10] was 26.9%, the “Mean % INH” value [11] was 32.2% and the “RKOp21 % INH [31.6 μM]” value [12] was 53.4%. The IC50 [12] was over 100 µM, the “PC3 % INH [31.6 μM]” value [13] was 16.2% and the IC50 [13] was over 100 µM. The IC50 [14] was over 100 µM.

With `CCCCCCCCCCOCCOCCOP(=O)([O-])OCC[N+]1(C)CCCCC1` [Compound 20] the “SKOV-3 % INH [100 μM]” value [10] was −6.1%, the “Mean % INH” value [11] was −1.7% and the “RKOp21 % INH [31.6 μM]” value [12] was −12.4%. For the same compound, the IC50 [12] was over 100 µM, the “PC3 % INH [31.6 μM]” value [13] was 13.4% and the IC50 [13] was over 100 µM. It also gave an IC50 [14] of over 100 µM.

`CCCCCCCCCCCCCCCCCCOP(=O)(O)OCCn1ccnc1` [Compound 67] was tested, and the IC50 ([12]; Homo sapiens) was over 100 µM, the IC50 ([13]; Homo sapiens, PC-3) was over 100 µM and the IC50 ([14]; Homo sapiens, HeLa) was over 100 µM. It also gave an MIC [15] of 8 µg/mL (≈ 18 µM).
